The results in this text go back to the supplement of paper PMC4932681.

Experiment in all cases: viability inhibition at highest dose (% inhibition); higher = more growth inhibition
Test [1] has as its system BT-474 Tam1. Conditions: 4-OH-tamoxifen in medium 1 µM; 72 h. The method in brief:
(§1)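 After seeding into 384-well plates with library drugs at five concentrations spanning a 10 000-fold range, breast cancer cell lines and their resistant derivatives were incubated 72 h at 37 °C. Resistant lines received medium with 1 μM of the selecting drug. CellTiter-Glo signal was read on a PHERAstar and scaled to vehicle-only and positive controls. Drug sensitivity score, relative IC50 (the curve midpoint) and top-dose inhibition came from logistic fits run in the Breeze pipeline.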

Test [2] has as its system BT-474 Tam2. Conditions: 4-OH-tamoxifen in medium 1 µM; 72 h. The method in brief:
as §1

The test system of test [3] is BT-474. The settings on record: 72 h. A digest of the protocol: as §1
In test [4] the test system is MCF-7 Tam1. The settings on record: 4-OH-tamoxifen in medium 1 µM; 72 h. The method in brief: as §1
Test [5] relates to MCF-7. Conditions: 72 h. The method in brief: as §1
Test [6] has as its system T-47D Tam1. Conditions: 4-OH-tamoxifen in medium 1 µM; 72 h. The method in brief:
as §1

The test system of test [7] is T-47D Tam2. Conditions: 4-OH-tamoxifen in medium 1 µM; 72 h. A digest of the protocol:
as §1

The test system of test [8] is T-47D. The settings on record: 72 h. The method in brief: as §1
For test [9], the system named is ZR-75-1 Tam1. The settings on record: 4-OH-tamoxifen in medium 1 µM; 72 h. A digest of the protocol: as §1
Test [10] concerns ZR-75-1 Tam2. The settings on record: 4-OH-tamoxifen in medium 1 µM; 72 h. A digest of the protocol: as §1
The test system of test [11] is ZR-75-1. Conditions: 72 h. A digest of the protocol:
as §1

As for `COc1cc(F)c(F)c(Nc2ccc(I)cc2F)c1NS(=O)(=O)C1(C[C@H](O)CO)CC1` [Refametinib (RDEA119)] (drug 10000 nM), the “viability inhibition at highest dose” value in [1] is 36.3; in [2] it was 14; in [3] (4-OH-tamoxifen in medium 0 µM), 9.83; in [3] (4-OH-tamoxifen in medium 1 µM), 54.3; in test [4] it was 33.1; in [5] (4-OH-tamoxifen in medium 0 µM) it was 44.2. Besides, the “viability inhibition at highest dose” value in [5] (4-OH-tamoxifen in medium 1 µM) was found to be 39.9; in [6] it was 31.2; in [7], 22; in test [8] (4-OH-tamoxifen in medium 0 µM) it was 24.3; in test [8] (4-OH-tamoxifen in medium 1 µM) it was 12.7; in test [9], 8.84. In addition, the “viability inhibition at highest dose” value in test [10] came to 10.6; in [11] (4-OH-tamoxifen in medium 0 µM), 20.6; in test [11] (4-OH-tamoxifen in medium 1 µM) it was 14.9.
On to `NC1(c2ccc(-c3nc4ccn5c(=O)[nH]nc5c4cc3-c3ccccc3)cc2)CCC1` [MK-2206] (drug 1000 nM), for which the “viability inhibition at highest dose” value came out at 47 in test [1]; 21.9 in test [2]; 27.6 in test [3] (4-OH-tamoxifen in medium 0 µM); 50.8 in test [3] (4-OH-tamoxifen in medium 1 µM); 29.1 in test [4]; 35.1 in test [5] (4-OH-tamoxifen in medium 0 µM). For the same molecule, the “viability inhibition at highest dose” value in test [5] (4-OH-tamoxifen in medium 1 µM) was determined as 44.8; in test [6], 44.5; in test [7], 49.9; in [8] (4-OH-tamoxifen in medium 0 µM) it was 52.4; in test [8] (4-OH-tamoxifen in medium 1 µM), 36.6; in test [9] it was 60.8. Moreover, the “viability inhibition at highest dose” value in test [10] was 63.1; in test [11] (4-OH-tamoxifen in medium 0 µM) it was 57.1; in test [11] (4-OH-tamoxifen in medium 1 µM), 51.6.
Turning to `O=C1c2c(O)ccc(O)c2C(=O)c2c(NCCNCCO)ccc(NCCNCCO)c21` [Mitoxantrone] (drug 1000 nM), the “viability inhibition at highest dose” value in [1] was -23.8; in test [2], -13.6; in [3] (4-OH-tamoxifen in medium 0 µM), 3.96; in [3] (4-OH-tamoxifen in medium 1 µM) it was -1.95; in test [4], 1.72; in [5] (4-OH-tamoxifen in medium 0 µM) it was -3.19. Also, the “viability inhibition at highest dose” value is 7.73 in test [5] (4-OH-tamoxifen in medium 1 µM); 47.8 in test [6]; 21.5 in test [7]; 29.5 in [8] (4-OH-tamoxifen in medium 0 µM); 2.9 in test [8] (4-OH-tamoxifen in medium 1 µM); 21.3 in test [9]. In addition, the “viability inhibition at highest dose” value turned out to be 24.9 in test [10], 29.7 in test [11] (4-OH-tamoxifen in medium 0 µM) and 20.2 in [11] (4-OH-tamoxifen in medium 1 µM).
With `CC(=O)c1c(C)c2cnc(Nc3ccc(N4CCNCC4)cn3)nc2n(C2CCCC2)c1=O` (drug 10000 nM), the “viability inhibition at highest dose” value in test [1] was determined as 6.18; in test [2] it was 9.88; in test [3] (4-OH-tamoxifen in medium 0 µM) it was 1.33; in test [3] (4-OH-tamoxifen in medium 1 µM), 4.19; in [4], 21.2; in test [5] (4-OH-tamoxifen in medium 0 µM), 33.1. Moreover, the “viability inhibition at highest dose” value in test [5] (4-OH-tamoxifen in medium 1 µM) is 27.9; in [6] it was 29.5; in [7], 21.5; in test [8] (4-OH-tamoxifen in medium 0 µM), 28.1; in test [8] (4-OH-tamoxifen in medium 1 µM), 0.74; in test [9] it was 18.7. For the same molecule, the “viability inhibition at highest dose” value in test [10] stood at 24.2; in test [11] (4-OH-tamoxifen in medium 0 µM), 2.14; in test [11] (4-OH-tamoxifen in medium 1 µM), 20.6.
As for `Cn1c(=O)n(-c2ccc(C(C)(C)C#N)cc2)c2c3cc(-c4cnc5ccccc5c4)ccc3ncc21` [Dactolisib (NVP-BEZ235)] (drug 1000 nM), the “viability inhibition at highest dose” value in test [1] was found to be 40.8; in [2], 29.2; in test [3] (4-OH-tamoxifen in medium 0 µM), 27.6; in test [3] (4-OH-tamoxifen in medium 1 µM) it was 39.4; in test [4], 32.4; in [5] (4-OH-tamoxifen in medium 0 µM), 67.7. In addition, the “viability inhibition at highest dose” value turned out to be 45 in [5] (4-OH-tamoxifen in medium 1 µM); 49.1 in test [6]; 29.7 in test [7]; 54.9 in [8] (4-OH-tamoxifen in medium 0 µM); 69.7 in test [8] (4-OH-tamoxifen in medium 1 µM); 49.4 in test [9]. For the same molecule, the “viability inhibition at highest dose” value in [10] is 57; in test [11] (4-OH-tamoxifen in medium 0 µM), 51; in test [11] (4-OH-tamoxifen in medium 1 µM) it was 41.8.
For `CN1CCN(CCOc2cc(OC3CCOCC3)c3c(Nc4c(Cl)ccc5c4OCO5)ncnc3c2)CC1` [Saracatinib] (drug 10000 nM), the “viability inhibition at highest dose” value stood at 100 in test [1]; 100 in [2]; 50.3 in test [3] (4-OH-tamoxifen in medium 0 µM); 94.4 in [3] (4-OH-tamoxifen in medium 1 µM); 4.6 in test [4]; 25.2 in [5] (4-OH-tamoxifen in medium 0 µM). The “viability inhibition at highest dose” value in test [5] (4-OH-tamoxifen in medium 1 µM) was 15; in [6], 36.6; in test [7], 27.9; in test [8] (4-OH-tamoxifen in medium 0 µM), 17.5; in test [8] (4-OH-tamoxifen in medium 1 µM), -7.13; in test [9] it was -10.5. For the same molecule, the “viability inhibition at highest dose” value in test [10] was -17.9; in test [11] (4-OH-tamoxifen in medium 0 µM), -37.6; in [11] (4-OH-tamoxifen in medium 1 µM), -19.4.
With `Cn1c(Nc2ccc(C(F)(F)F)cc2)nc2cc(Oc3ccnc(-c4ncc(C(F)(F)F)[nH]4)c3)ccc21` [RAF265] (drug 1000 nM), the “viability inhibition at highest dose” value was 4.22 in test [1]; 9 in [2]; -9.23 in test [3] (4-OH-tamoxifen in medium 0 µM); 7.76 in test [3] (4-OH-tamoxifen in medium 1 µM); -5.31 in [4]; -2.02 in test [5] (4-OH-tamoxifen in medium 0 µM). Further, the “viability inhibition at highest dose” value in test [5] (4-OH-tamoxifen in medium 1 µM) was -1.12; in test [6], 22.5; in [7], 2.98; in [8] (4-OH-tamoxifen in medium 0 µM), 12.4; in test [8] (4-OH-tamoxifen in medium 1 µM) it was -5.82; in [9], -1.02. Further, the entries for the “viability inhibition at highest dose” value in [10], in test [11] (4-OH-tamoxifen in medium 0 µM) and in test [11] (4-OH-tamoxifen in medium 1 µM) were 11.6, 2.38 and -4.76, respectively.
For `Nc1nc(Cl)nc2c1ncn2[C@@H]1O[C@H](CO)[C@@H](O)[C@@H]1F` [Clofarabine] (drug 10000 nM), the “viability inhibition at highest dose” value in test [1] is -21.8; in test [2], -3.66; in [3] (4-OH-tamoxifen in medium 0 µM) it was -7.9; in test [3] (4-OH-tamoxifen in medium 1 µM) it was -34.5; in [4], -1.02; in test [5] (4-OH-tamoxifen in medium 0 µM), 32.2. Also, the “viability inhibition at highest dose” value in [5] (4-OH-tamoxifen in medium 1 µM) is 10.4; in test [6], 38.6; in test [7], 27.8; in [8] (4-OH-tamoxifen in medium 0 µM) it was 35.1; in test [8] (4-OH-tamoxifen in medium 1 µM), 43; in test [9] it was 23.6. Further, the “viability inhibition at highest dose” value in test [10] came to 22.2; in [11] (4-OH-tamoxifen in medium 0 µM), 21.8; in test [11] (4-OH-tamoxifen in medium 1 µM) it was 14.8.
For `COc1cc2ncnc(Nc3ccc(F)c(Cl)c3)c2cc1OCCCN1CCOCC1` [Gefitinib] (drug 10000 nM), the “viability inhibition at highest dose” value was 97.7 in [1]; 96.8 in test [2]; 86.4 in test [3] (4-OH-tamoxifen in medium 0 µM); 96.6 in test [3] (4-OH-tamoxifen in medium 1 µM); 14.2 in test [4]; 28 in [5] (4-OH-tamoxifen in medium 0 µM). Also, the “viability inhibition at highest dose” value in test [5] (4-OH-tamoxifen in medium 1 µM) came to 35.6; in [6], 34.2; in test [7], 47.3; in test [8] (4-OH-tamoxifen in medium 0 µM), 12.1; in test [8] (4-OH-tamoxifen in medium 1 µM), 8.3; in test [9], 22.2. Also, the entries for the “viability inhibition at highest dose” value in test [10], in [11] (4-OH-tamoxifen in medium 0 µM) and in test [11] (4-OH-tamoxifen in medium 1 µM) were 18.6, 13.1 and 27.5, respectively.
